Source: US7371888B2, “α-(Trifluoromethyl-substituted aryloxy, arylamino, arylthio or arylmethyl)-trifluoromethyl-substituted phenylacetic acids and derivatives as antidiabetic agents” (Metabolex, Inc., priority 2004, dated 2008)

Test system: C57BL/6J ob/ob mice
Experiment: Anti-diabetic activity in the C57BL/6j ob/ob mice model (plasma glucose lowering, insulin level)
Type: in vivo
Details: male C57BL/6J ob/ob mice, orally by gavage once a day for 1-4 days; for Insulin Level compared with vehicle: drug-treated vs vehicle-treated; for minimal effective dose: Mus musculus, po, glucose lowering, plasma glucose 6 hours after each dose, read-out: Potency
Protocol: The anti-diabetic activities of the compounds were evaluated in the C57BL/6j ob/ob Mice model. Male, 7-9 weeks old, C57BL/6J ob/ob mice were purchased from The Jackson Laboratory (Bar Harbor, Me., USA). Animals were housed (4-5 mice/cage) under standard laboratory conditions at 22±3° C. temperature and 50±20% relative humidity, and were maintained on a diet of Purina rodent chow and water ad libitum. Prior to treatment, blood was collected from the tail vein of each animal. Mice that had non-fasting plasma glucose levels between 250 and 500 mg/dl were used. Each treatment group consisted of 8-10 mice that were distributed so that the mean glucose levels were equivalent in each group at the start of the study. Mice were dosed orally by gavage once a day for 1-4 days with vehicle and one or more dose of test compound at a dose ranging from 5 to 125 mg/kg. Compounds were delivered in a liquid formulation containing 5% (v/v) dimethyl sulfoxide (DMSO), 1% (v/v) Tween 80® and 0.9% (w/v) methylcellulose. The gavage volume was 10 ml/kg. Blood samples were taken at 6 hours after the each dose and analyzed for plasma glucose. Food intake and body weight were measured daily. Plasma glucose concentrations were determined calorimetrically using a commercial glucose oxidase method (Sigma Chemical Co, St. Louis, Mo., USA). Significant difference between groups (comparing drug-treated to vehicle-treated) was evaluated using the Student unpaired t-test. Table 1 provides the relative potency of some selected compounds of the invention.

| SMILES | Insulin Level compared with vehicle | minimal effective dose |
| --- | --- | --- |
| O=C(O)C(Oc1ccc(C(F)(F)F)cc1)c1cccc(C(F)(F)F)c1 (single isomer, unassigned; (+)) [(+)-39, (4-trifluoromethyl-phenoxy)-(3-trifluoromethyl-phenyl)-acetic acid] | Lower | – |
| O=C(O)C(Oc1ccc(C(F)(F)F)cc1)c1cccc(C(F)(F)F)c1 (single isomer, unassigned; (-)) [(−)-39, (4-trifluoromethyl-phenoxy)-(3-trifluoromethyl-phenyl)-acetic acid] | Lower | – |
| O=C(O)C(Oc1ccc(C(F)(F)F)cc1)c1cccc(C(F)(F)F)c1 (centres unmarked) [Compound 39, (4-Trifluoromethyl-phenoxy)-(3-trifluoromethyl-phenyl)-acetic acid] | Lower | – |
| O=C(O)C(Oc1cc(C(F)(F)F)cc(C(F)(F)F)c1)c1ccc(C(F)(F)F)cc1 (centres unmarked) [Compound 81] | Lower | ≤ 125 mg/kg |
| O=C(O)C(Oc1ccc(C(F)(F)F)cc1)c1ccc(C(F)(F)F)cc1 (centres unmarked) [Compound 83, (4-Trifluoromethyl-phenoxy)-(4-trifluoromethyl-phenyl)-acetic acid] | Lower | ≤ 125 mg/kg |
| O=C(O)C(Oc1ccc(C(F)(F)F)cc1Cl)c1cccc(C(F)(F)F)c1 (centres unmarked) [Compound 85, (2-Chloro-4-trifluoromethyl-phenoxy)-(3-trifluoromethyl-phenyl)-acetic acid] | Lower | ≤ 125 mg/kg |
| O=C(O)C(Oc1cccc(C(F)(F)F)c1)c1ccc(C(F)(F)F)cc1 (centres unmarked) [Compound 86, (3-trifluoromethyl-phenoxy)-(4-trifluoromethyl-phenyl)-acetic acid] | Lower | ≤ 125 mg/kg |
| O=C(O)C(Oc1ccc(C(F)(F)F)cc1Cl)c1ccc(C(F)(F)F)cc1 (centres unmarked) [Compound 89, (2-Chloro-4-trifluoromethyl-phenoxy)-(4-trifluoromethyl-phenyl)-acetic acid] | Lower | ≤ 125 mg/kg |
| O=C(O)C(Oc1ccc(C(F)(F)F)cn1)c1cccc(C(F)(F)F)c1 (centres unmarked) [Compound 100, (3-trifluoromethyl-phenyl)-(5-trifluoromethyl-pyridin-2-yloxy)-acetic acid] | Lower | ≤ 125 mg/kg |
| CC(Oc1ccc(C(F)(F)F)cc1)(C(=O)O)c1cccc(C(F)(F)F)c1 (centres unmarked) [Compound 120, 2-(4-trifluoromethyl-phenoxy)-2-(3-trifluoromethyl-phenyl)-propionic acid] | Lower | ≤ 125 mg/kg |
| CC(Oc1ccc(C(F)(F)F)cc1)(C(=O)O)c1ccc(C(F)(F)F)cc1 (centres unmarked) [Compound 121, 2-(4-Trifluoromethyl-phenoxy)-2-(4-trifluoromethyl-phenyl)-propionic acid] | Lower | ≤ 125 mg/kg |
| OCC(Oc1ccc(C(F)(F)F)cc1Cl)c1ccc(C(F)(F)F)cc1 (centres unmarked) [Compound 128] | Lower | ≤ 125 mg/kg |
| CC(=O)NCCOC(=O)C(Oc1ccc(C(F)(F)F)cc1)c1cccc(C(F)(F)F)c1 (centres unmarked) [Compound 136, (4-trifluoromethyl-phenoxy)-(3-trifluoromethyl-phenyl)-acetic acid 2-acetylamino-ethyl ester] | Lower | ≤ 125 mg/kg |
| CC(=O)NCCOC(=O)C(Oc1cccc(C(F)(F)F)c1)c1ccc(C(F)(F)F)cc1 (centres unmarked) [Compound 142] | Lower | ≤ 125 mg/kg |
| CC(=O)NCCOC(=O)C(Oc1cc(C(F)(F)F)cc(C(F)(F)F)c1)c1ccc(C(F)(F)F)cc1 (centres unmarked) [Compound 143] | Lower | ≤ 125 mg/kg |
| CC(=O)NCCOC(=O)C(Oc1cccc(C(F)(F)F)c1)c1cccc(C(F)(F)F)c1 (centres unmarked) [Compound 144] | Lower | ≤ 125 mg/kg |
| CC(=O)NCCOC(=O)C(Oc1ccc(C(F)(F)F)cc1)c1ccc(C(F)(F)F)cc1 (centres unmarked) [Compound 145] | Lower | ≤ 125 mg/kg |
| CC(=O)NCCOC(=O)C(Oc1ccccc1C(F)(F)F)c1ccc(C(F)(F)F)cc1 (centres unmarked) [Compound 146] | Lower | > 125 mg/kg |
| CC(=O)NCCOC(=O)C(Oc1cccc(C(F)(F)F)c1)c1ccccc1C(F)(F)F (centres unmarked) [Compound 147] | Lower | > 125 mg/kg |
